Assay: xn = mol fraction of the nth substance listed
Conditions: 101 kPa, Liquid; for speed of sound: Sing-around technique in a fixed-path interferometer; for mass density: Vibrating tube method

CCCCCCCC[n+]1ccn(C)c1.[Cl-] [1-methyl-3-octylimidazolium chloride] + O
Conditions	mass density [kg/m3]	speed of sound [m/s]
283 K, x1 = 0.000276	999.831	1451.5
283 K, x1 = 0.000495	999.918	1454.3
283 K, x1 = 0.000781	1000.05	1457
283 K, x1 = 0.00102	1000.16	1460.1
283 K, x1 = 0.0013	1000.3	1463.2
283 K, x1 = 0.001503	1000.38	1465.5
283 K, x1 = 0.001892	1000.56	1469.7
283 K, x1 = 0.002073	1000.64	1471.7
283 K, x1 = 0.002376	1000.78	1474.9
283 K, x1 = 0.00261	1000.89	1477.4
283 K, x1 = 0.002774	1000.96	1479
283 K, x1 = 0.003111	1001.11	1482.5
283 K, x1 = 0.003716	1001.38	1488.4
283 K, x1 = 0.003899	1001.46	1489.7
283 K, x1 = 0.004079	1001.55	1491.9
283 K, x1 = 0.004181	1001.59	1492.8
283 K, x1 = 0.004462	1001.71	1495.5
283 K, x1 = 0.004601	1001.77	1496.8
283 K, x1 = 0.004981	1001.93	1500.1
283 K, x1 = 0.005198	1002.02	1501.6
283 K, x1 = 0.005607	1002.2	1505.4
283 K, x1 = 0.005782	1002.27	1506.8
288 K, x1 = 0.000276	999.227	1469.6
288 K, x1 = 0.000495	999.302	1471.9
288 K, x1 = 0.000781	999.421	1474.6
288 K, x1 = 0.00102	999.519	1477.3
288 K, x1 = 0.0013	999.641	1480.2
288 K, x1 = 0.001503	999.712	1482.2
288 K, x1 = 0.001892	999.863	1486.1
288 K, x1 = 0.002073	999.938	1488
288 K, x1 = 0.002376	1000.06	1490.9
288 K, x1 = 0.00261	1000.15	1493.3
288 K, x1 = 0.002774	1000.21	1494.7
288 K, x1 = 0.003111	1000.35	1497.9
288 K, x1 = 0.003716	1000.58	1503.2
288 K, x1 = 0.003899	1000.64	1504.7
288 K, x1 = 0.004079	1000.72	1506.4
288 K, x1 = 0.004181	1000.75	1507.3
288 K, x1 = 0.004462	1000.85	1509.7
288 K, x1 = 0.004601	1000.9	1510.9
288 K, x1 = 0.004981	1001.04	1513.8
288 K, x1 = 0.005198	1001.12	1515.3
288 K, x1 = 0.005607	1001.27	1518.4
288 K, x1 = 0.005782	1001.32	1519.6
293 K, x1 = 0.000276	998.326	1485.5
293 K, x1 = 0.000495	998.392	1487.7
293 K, x1 = 0.000781	998.497	1490.3
293 K, x1 = 0.00102	998.584	1492.6
293 K, x1 = 0.0013	998.69	1495.3
293 K, x1 = 0.001503	998.751	1497.2
293 K, x1 = 0.001892	998.879	1500.8
293 K, x1 = 0.002073	998.946	1502.5
293 K, x1 = 0.002376	999.051	1505.2
293 K, x1 = 0.00261	999.124	1507.3
293 K, x1 = 0.002774	999.173	1508.7
293 K, x1 = 0.003111	999.291	1511.6
293 K, x1 = 0.003716	999.491	1516.5
293 K, x1 = 0.003899	999.54	1517.8
293 K, x1 = 0.004079	999.608	1519.3
293 K, x1 = 0.004181	999.636	1520.1
293 K, x1 = 0.004462	999.721	1522.3
293 K, x1 = 0.004601	999.764	1523.3
293 K, x1 = 0.004981	999.873	1525.9
293 K, x1 = 0.005198	999.935	1527.2
293 K, x1 = 0.005607	1000.06	1529.9
293 K, x1 = 0.005782	1000.1	1530.9
298 K, x1 = 0.000276	997.161	1499.5
298 K, x1 = 0.000495	997.221	1501.5
298 K, x1 = 0.000781	997.313	1503.9
298 K, x1 = 0.00102	997.386	1506.1
298 K, x1 = 0.0013	997.479	1508.5
298 K, x1 = 0.001503	997.527	1510.3
298 K, x1 = 0.001892	997.639	1513.6
298 K, x1 = 0.002073	997.696	1515.2
298 K, x1 = 0.002376	997.786	1517.6
298 K, x1 = 0.00261	997.846	1519.6
298 K, x1 = 0.002774	997.889	1520.8
298 K, x1 = 0.003111	997.987	1523.5
298 K, x1 = 0.003716	998.157	1527.9
298 K, x1 = 0.003899	998.198	1529.1
298 K, x1 = 0.004079	998.254	1530.5
298 K, x1 = 0.004181	998.28	1531.2
298 K, x1 = 0.004462	998.349	1533.1
298 K, x1 = 0.004601	998.382	1534
298 K, x1 = 0.004981	998.469	1536.3
298 K, x1 = 0.005198	998.52	1537.5
298 K, x1 = 0.005607	998.619	1539.8
298 K, x1 = 0.005782	998.649	1540.7
303 K, x1 = 0.000276	995.767	1511.7
303 K, x1 = 0.000495	995.808	1513.5
303 K, x1 = 0.000781	995.896	1515.8
303 K, x1 = 0.00102	995.954	1517.8
303 K, x1 = 0.0013	996.029	1520
303 K, x1 = 0.001503	996.067	1521.6
303 K, x1 = 0.001892	996.169	1524.7
303 K, x1 = 0.002073	996.211	1526.1
303 K, x1 = 0.002376	996.287	1528.3
303 K, x1 = 0.00261	996.341	1530.2
303 K, x1 = 0.002774	996.377	1531.2
303 K, x1 = 0.003111	996.455	1533.7
303 K, x1 = 0.003716	996.597	1537.7
303 K, x1 = 0.003899	996.633	1538.8
303 K, x1 = 0.004079	996.675	1540
303 K, x1 = 0.004181	996.696	1540.7
303 K, x1 = 0.004462	996.755	1542.4
303 K, x1 = 0.004601	996.78	1543.2
303 K, x1 = 0.004981	996.85	1545.2
303 K, x1 = 0.005198	996.89	1546.2
303 K, x1 = 0.005607	996.962	1548.2
303 K, x1 = 0.005782	996.986	1549
308 K, x1 = 0.000276	994.15	1522.2
308 K, x1 = 0.000495	994.182	1523.8
308 K, x1 = 0.000781	994.262	1526
308 K, x1 = 0.00102	994.297	1527.8
308 K, x1 = 0.0013	994.364	1529.8
308 K, x1 = 0.001503	994.399	1531.3
308 K, x1 = 0.001892	994.479	1534.1
308 K, x1 = 0.002073	994.514	1535.4
308 K, x1 = 0.002376	994.575	1537.4
308 K, x1 = 0.00261	994.623	1539.1
308 K, x1 = 0.002774	994.653	1540.1
308 K, x1 = 0.003111	994.711	1542.3
308 K, x1 = 0.003716	994.828	1545.9
308 K, x1 = 0.003899	994.859	1546.9
308 K, x1 = 0.004079	994.891	1548
308 K, x1 = 0.004181	994.908	1548.6
308 K, x1 = 0.004462	994.953	1550.1
308 K, x1 = 0.004601	994.974	1550.8
308 K, x1 = 0.004981	995.028	1552.6
308 K, x1 = 0.005198	995.061	1553.5
308 K, x1 = 0.005607	995.112	1555.3
308 K, x1 = 0.005782	995.128	1555.9
313 K, x1 = 0.000276	992.324	1531.1
313 K, x1 = 0.000495	992.347	1532.6
313 K, x1 = 0.000781	992.417	1534.6
313 K, x1 = 0.00102	992.447	1536.2
313 K, x1 = 0.0013	992.496	1538.1
313 K, x1 = 0.001503	992.524	1539.5
313 K, x1 = 0.001892	992.591	1542
313 K, x1 = 0.002073	992.619	1543.2
313 K, x1 = 0.002376	992.664	1545
313 K, x1 = 0.00261	992.706	1546.6
313 K, x1 = 0.002774	992.728	1547.5
313 K, x1 = 0.003111	992.774	1549.5
313 K, x1 = 0.003716	992.866	1552.7
313 K, x1 = 0.003899	992.89	1553.7
313 K, x1 = 0.004079	992.912	1554.6
313 K, x1 = 0.004181	992.929	1555.1
313 K, x1 = 0.004462	992.963	1556.5
313 K, x1 = 0.004601	992.978	1557.1
313 K, x1 = 0.004981	993.015	1558.7
313 K, x1 = 0.005198	993.04	1559.5
313 K, x1 = 0.005607	993.076	1561
313 K, x1 = 0.005782	993.084	1561.6

Reference: the NIST ThermoML archive (doi:10.1016/j.jct.2012.11.032)
